In patent US20100056526A1, “HETEROMONOCYCLIC COMPOUND AND USE THEREOF” (Takeda Pharmaceutical Company Limited, priority 2006, published 2010) one finds activation and IC50 data, which are given here for one compound.

The target in one test is T1, PPARγ (Homo sapiens, UniProt P37231).
T1 construct: expressed in transfected cells; host or cells: CHO-K1
T1 sequence (P37231 1-477 isoform P37231-2): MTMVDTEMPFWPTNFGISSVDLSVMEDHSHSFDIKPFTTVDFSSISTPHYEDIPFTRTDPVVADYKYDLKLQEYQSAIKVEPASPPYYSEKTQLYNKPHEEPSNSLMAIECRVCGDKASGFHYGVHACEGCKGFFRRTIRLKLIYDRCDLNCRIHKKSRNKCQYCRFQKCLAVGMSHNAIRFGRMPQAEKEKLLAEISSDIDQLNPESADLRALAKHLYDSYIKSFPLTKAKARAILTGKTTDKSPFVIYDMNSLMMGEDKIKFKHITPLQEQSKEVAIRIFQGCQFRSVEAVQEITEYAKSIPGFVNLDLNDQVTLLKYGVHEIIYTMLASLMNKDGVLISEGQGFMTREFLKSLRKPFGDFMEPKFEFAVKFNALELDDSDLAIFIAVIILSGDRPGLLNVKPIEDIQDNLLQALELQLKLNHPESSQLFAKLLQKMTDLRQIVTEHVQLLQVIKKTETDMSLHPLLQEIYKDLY
T1 sequence (P19793 1-462 partner): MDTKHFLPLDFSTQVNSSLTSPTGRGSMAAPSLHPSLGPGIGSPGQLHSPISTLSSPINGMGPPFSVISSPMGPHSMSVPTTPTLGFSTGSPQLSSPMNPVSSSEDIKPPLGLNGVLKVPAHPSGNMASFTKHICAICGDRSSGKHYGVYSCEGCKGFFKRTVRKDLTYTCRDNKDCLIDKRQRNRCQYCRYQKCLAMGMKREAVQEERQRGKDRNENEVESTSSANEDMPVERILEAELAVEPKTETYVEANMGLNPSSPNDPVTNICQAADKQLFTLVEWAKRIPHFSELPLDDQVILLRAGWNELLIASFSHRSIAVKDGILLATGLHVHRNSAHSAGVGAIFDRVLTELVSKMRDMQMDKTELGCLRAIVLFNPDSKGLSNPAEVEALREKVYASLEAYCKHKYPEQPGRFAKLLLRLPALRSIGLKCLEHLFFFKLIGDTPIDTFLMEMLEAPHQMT
Description: Evaluation of PPARγ activating action (luciferase reporter in PPARγ:RXRα:4ERPP/CHO-K1 cells). The test is classed as cell-based. The following applies: CHO-K1, 24 h; test compound 10^−6 M; luciferase activity relative to control compound X (1 μM) = 100%, non-administration group = 0%; read-out: PPARγ activating action (activation % (10^−6 M)). Put shortly: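 Activity is expressed as percent, where vehicle gives 0% and 1 μM compound X gives 100%, based on luciferase luminescence. Reporter CHO-K1 cells co-expressing PPARγ:RXRα with a 4ERPP-driven luciferase were incubated with test compound for one day at 37 °C in medium with 0.1% fatty acid-free BSA.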

The target of a further test is T2, human AT1 receptor (Homo sapiens, UniProt P30556).
T2 construct: expressed in transfected cells; host or cells: CHO-K1
T2 sequence (P30556 1-359): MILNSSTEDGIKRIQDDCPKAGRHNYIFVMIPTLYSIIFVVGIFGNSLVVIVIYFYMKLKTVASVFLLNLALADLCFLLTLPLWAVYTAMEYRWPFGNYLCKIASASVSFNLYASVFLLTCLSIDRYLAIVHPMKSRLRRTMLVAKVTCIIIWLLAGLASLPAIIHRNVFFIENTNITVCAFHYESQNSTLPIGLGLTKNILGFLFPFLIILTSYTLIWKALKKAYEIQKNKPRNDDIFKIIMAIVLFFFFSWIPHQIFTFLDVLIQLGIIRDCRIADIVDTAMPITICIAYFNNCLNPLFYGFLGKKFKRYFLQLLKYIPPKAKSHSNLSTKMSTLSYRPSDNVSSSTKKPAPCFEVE
Description: Binding assay using human AT1 receptor-expressing CHO-K1 cell membrane fraction ([125I]-angiotensin II). The following applies: 22.5 pM [125I]-angiotensin II, 9 μg AT1 membrane, 1 hr room temperature; read-out: AT1 receptor binding inhibitory action (IC50 (nM)). The method, boiled down:
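Radioligand displacement: test compound competed with [125I]-angiotensin II (22.5 pM) on stable CHO-K1 AT1 membrane fraction, 1 hr, room temperature, Tris pH 7.4/MgCl2 buffer ± 0.3 mg/mL BSA. Filtration then scintillation counting; 1 μM CV-11974 defined nonspecific binding. Values are IC50s.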

Turning to `CCCc1nc(CC)c(-c2ccc(OC(C)(C)CO)cc2)c(=O)n1Cc1ccc(-c2ccccc2-c2noc(O)n2)cc1` [Example 512, 6-ethyl-5-[4-(2-hydroxy-1,1-dimethylethoxy)phenyl]-3-{[2′-(5-oxo-4,5-dihydro-1,2,4-oxadiazol-3-yl)biphenyl-4-yl]methyl}-2-propylpyrimidin-4(3H)-one], the activation at 1 µM on PPARγ worked out at 20.3%. Moreover, the IC50 (in general, the concentration at which inhibition is half-maximal) at human AT1 receptor worked out at 1.3 nM.
